According to publication PMC10762078, “Role of UPF1-LIN28A interaction during early differentiation of pluripotent stem cells” (Nature Communications, 2024):

How the values were obtained:
[1] = system: hPSCs; test: RT-qPCR of pluripotency and germ-layer markers during differentiation with CPP-peptides (Supplementary Fig. 7b-e); format: cell-based, human; details: for GATA4 (RT-qPCR) / SOX17 (RT-qPCR): Fig. s7e
Procedure: For CPP-conjugated peptide delivery, HeLa, 293T, and PA-1 cells were incubated with CPP-conjugated peptides or CPP-FITC at 2 μM in DMEM with 10% FBS for 12 h a day before cell harvest. hPSCs were treated with CPP-conjugated peptides at 10 μM in mTeSR Plus Medium, and the peptide-containing medium was changed every day over 10 days. The ROCK inhibitor (Tocris Bioscience, Y-27632) treated-hPSCs were dissociated into single cells using Accutase (Merck, SCR005) and differentiated into ectoderm, mesoderm, and endoderm using the STEMdiff Trilineage Differentiation Kit ([…] Technologies, 05230) following the manufacturer’s protocol. Differentiated cells treated with CPP-conjugated peptides were analysed at 0, 3, and 5 days for ectoderm and endoderm, and at 0, 3, and 4 days for mesoderm. […]
cDNA was synthesised using RevertAid Reverse Transcriptase (Thermo Fisher Scientific, EP0441) with synthesised random hexamer (Macrogen) for total RNA or stem-loop primers for miRNA. For RT-qPCR reactions, the SensiFAST SYBR No-ROX kit (Meridian Bioscience) was used according to the manufacturer’s protocol. All data analysis and visualisation were conducted using R 3.6.1 [www.r-project.org] or GraphPad Prism 10. RT primers for miRNA and RT-qPCR primer sequences are provided in Supplementary Data 6. […]
FPKM of each gene was presented f r om RNA-seq analysis. b–e hPSCs wer e treated with the indicated peptide during each germ la ye r differentiation. […]
An unpaired Student’s t-test was used for a–e. Data are presented as mean values ± SEM. All statistical test us ed wer e two-s ided. T he m inim um number of independent biological replicate experim ents was a–f n = 3. T he experiments wer e conducted three tim es, each iteration producing consistent results.

[2] = system: CHA15 cells; test: Flow cytometry of SOX1, DLK1 and LHX2 during ectodermal differentiation (Fig. 7b, Supplementary Fig. 7f); format: cell-based, human; design: unit not given here; details: mean from t test output, scale differs from set1-set3 values
Procedure: For CPP-conjugated peptide delivery, HeLa, 293T, and PA-1 cells were incubated with CPP-conjugated peptides or CPP-FITC at 2 μM in DMEM with 10% FBS for 12 h a day before cell harvest. hPSCs were treated with CPP-conjugated peptides at 10 μM in mTeSR Plus Medium, and the peptide-containing medium was changed every day over 10 days. The ROCK inhibitor (Tocris Bioscience, Y-27632) treated-hPSCs were dissociated into single cells using Accutase (Merck, SCR005) and differentiated into ectoderm, mesoderm, and endoderm using the STEMdiff Trilineage Differentiation Kit ([…] Technologies, 05230) following the manufacturer’s protocol. Differentiated cells treated with CPP-conjugated peptides were analysed at 0, 3, and 5 days for ectoderm and endoderm, and at 0, 3, and 4 days for mesoderm.
To evaluate the relative cell number expressing the indicated proteins, CHA15 cells with the indicated CPP-conjugated peptide were fixed with BD Cytofix Fixation Buffer (BD Biosciences Pharmingen, 554655) followed by permeabilization with 0.1% BSA/PBS solution supplemented with 10% NGS and 0.3% Triton X-100 for 1 h at 4 °C. After washing, cells were incubated with the primary antibodies (OCT4 1:1000, NANOG 1:1000, DLK1 1:1000, SOX2 1:1000, LHX2 1:1000) and then, secondary antibody, Alexa Fluor 488 (1:1000), was applied. The positive cells were determined using flow cytometry (FACSCanto, BD Pharmingen), and data was analysed using the Flow Jo-v10 software program.

[3] = Fig. s7d, day 3, mean of 3 replicates
[4] = Fig. s7d, day 4, mean of 3 replicates

Substance: N-QKLDQKELQLEPM-C [P1, reference compound]
- TBXT mRNA level (RT-qPCR) ([1]; Fig. s7d, Day 3, replicate 2): 7659.6
- BMP2 mRNA level (RT-qPCR) ([1]; Fig. s7d, Day 3, replicate 3): 1.524
- BMP4 mRNA level (RT-qPCR) ([1]; Fig. s7d, Day 3, replicate 3): 46.0509
- CDH2 mRNA level (RT-qPCR) ([1]; Fig. s7d, Day 3, replicate 3): 27.2966
- CXCR4 mRNA level (RT-qPCR) ([1]; Fig. s7d, Day 3, replicate 3): 857.014
- SNAI1 mRNA level (RT-qPCR) ([1]; Fig. s7d, Day 3, replicate 3): 26.6105
- TBXT mRNA level (RT-qPCR) ([1]; Fig. s7d, Day 3, replicate 3): 10449.6
- BMP2 mRNA level (RT-qPCR) ([1]; Fig. s7d, Day 4, replicate 1): 0.2301
- BMP4 mRNA level (RT-qPCR) ([1]; Fig. s7d, Day 4, replicate 1): 13.0546
- CDH2 mRNA level (RT-qPCR) ([1]; Fig. s7d, Day 4, replicate 1): 16.734
- CXCR4 mRNA level (RT-qPCR) ([1]; Fig. s7d, Day 4, replicate 1): 712.401
- SNAI1 mRNA level (RT-qPCR) ([1]; Fig. s7d, Day 4, replicate 1): 5.736
- TBXT mRNA level (RT-qPCR) ([1]; Fig. s7d, Day 4, replicate 1): 3587.41
- BMP2 mRNA level (RT-qPCR) ([1]; Fig. s7d, Day 4, replicate 2): 0.3418
- BMP4 mRNA level (RT-qPCR) ([1]; Fig. s7d, Day 4, replicate 2): 14.5702
- CDH2 mRNA level (RT-qPCR) ([1]; Fig. s7d, Day 4, replicate 2): 18.1378
- CXCR4 mRNA level (RT-qPCR) ([1]; Fig. s7d, Day 4, replicate 2): 778.248
- SNAI1 mRNA level (RT-qPCR) ([1]; Fig. s7d, Day 4, replicate 2): 15.183
- TBXT mRNA level (RT-qPCR) ([1]; Fig. s7d, Day 4, replicate 2): 4442.19
- BMP2 mRNA level (RT-qPCR) ([1]; Fig. s7d, Day 4, replicate 3): 0.2814
- BMP4 mRNA level (RT-qPCR) ([1]; Fig. s7d, Day 4, replicate 3): 11.4814
- CDH2 mRNA level (RT-qPCR) ([1]; Fig. s7d, Day 4, replicate 3): 17.3255
- CXCR4 mRNA level (RT-qPCR) ([1]; Fig. s7d, Day 4, replicate 3): 495.057
- SNAI1 mRNA level (RT-qPCR) ([1]; Fig. s7d, Day 4, replicate 3): 11.0955
- TBXT mRNA level (RT-qPCR) ([1]; Fig. s7d, Day 4, replicate 3): 3830.03
- SNAI1 mRNA level (RT-qPCR), mean [1, 3]: 22.94
- TBXT mRNA level (RT-qPCR), mean [1, 3]: 8147
- BMP4 mRNA level (RT-qPCR), mean [1, 4]: 13.04
- CDH2 mRNA level (RT-qPCR), mean [1, 4]: 17.4
- TBXT mRNA level (RT-qPCR), mean [1, 4]: 3953
- GATA4 (RT-qPCR) ([1]; Day 0, replicate 1): 0.7242
- GATA4 (RT-qPCR) ([1]; Day 0, replicate 2): 1.3517
- GATA4 (RT-qPCR) ([1]; Day 0, replicate 3): 0.9241
- GATA4 (RT-qPCR) ([1]; Day 3, replicate 1): 30.0473
- GATA4 (RT-qPCR) ([1]; Day 3, replicate 2): 43.5025
- GATA4 (RT-qPCR) ([1]; Day 3, replicate 3): 37.4013
- GATA4 (RT-qPCR) ([1]; Day 5, replicate 1): 61.3703
- GATA4 (RT-qPCR) ([1]; Day 5, replicate 2): 60.3509
- GATA4 (RT-qPCR) ([1]; Day 5, replicate 3): 57.9664
- SOX17 (RT-qPCR) ([1]; Day 0, replicate 1): 1.264
- SOX17 (RT-qPCR) ([1]; Day 0, replicate 2): 0.8709
- SOX17 (RT-qPCR) ([1]; Day 0, replicate 3): 0.8647
- SOX17 (RT-qPCR) ([1]; Day 3, replicate 1): 1651.55
- SOX17 (RT-qPCR) ([1]; Day 3, replicate 2): 1098.49
- SOX17 (RT-qPCR) ([1]; Day 3, replicate 3): 1780.82
- SOX17 (RT-qPCR) ([1]; Day 5, replicate 1): 1087.63
- SOX17 (RT-qPCR) ([1]; Day 5, replicate 2): 1382.51
- SOX17 (RT-qPCR) ([1]; Day 5, replicate 3): 1398.03
- DLK1 FACS, mean [2]: 6634
- LHX2 FACS, mean [2]: 6112
- SOX1 FACS, mean [2]: 8503
